Data reported in PubChem BioAssay AID504759 (National Center for Advancing Translational Sciences (NCATS), 2011).

Tested on: Caco-2 monolayer bidirectional permeability, LC-MS/MS
Experiment: Inhibitors of Cruzain: Efflux Ratio Profiling
Details: stronger effect = lower value
Excerpt: Chagas Disease is a neglected tropical disease that affects over 16 million people in Latin America. The cysteine protease cruzain is essential for the survival Trypanosoma cruzi, the parasitic agent responsible for Chagas disease. Potential intervention for T. cruzi includes the inhibition of cruzain. This bioassay will summarize the ongoing development of small molecule cruzain inhbitiors. Currently, a screen of ~200k compounds and through extensive follow-up work a probe was identified. To further characterize the probe, it was tested in in vitro ADME assays. This bioassays provides profiling data on Caco-2 cell permeability of leads compounds developed for the HPGD project. This in vitro model is often predictive of in vivo efflux of the compound by measuring the ratio of transport in and out the plasma membrane of the Caco2-cell line. NIH Chemical Genomics Center [NCGC] NIH Molecular Libraries Probe Production Centers Network [MLPCN] MLSCN Grant: DA024891-01 PI Name: Dr. Brian Shoichet; University of California, San Francisco
1. Buffer Preparation: Prepare 1M HEPES: add 23.83g HEPES to 100ml of 0.85% NaCl Prepare HBSS+ buffer: add 12.8ml of 1M HEPES in 0.85% NaCl to 500ml HBSS buffer. 2. […] The T0, LY and T90, LY plates are read by FlexStation 3 at excitation of 485 nm and emission of 535 nm to determine LY permeability. […]

efflux ratio: 1.1
Structure (SMILES): Cc1ccc(OCCn2c(CCNC(=O)C3CCCCC3)nc3ccccc32)cc1
